Measured values: patent US20140121216A1, “INDOLEAMINE DERIVATIVES FOR THE TREATMENT OF CENTRAL NERVOUS SYSTEM DISEASES” (Adamed Sp. z o.o., priority 2011, published 2014)

What was measured:
[1] = test system: α1 adrenergic receptors (rat cerebral cortex); test: Binding assay, α1 adrenergic receptor ([3H]prazosin); settings: compound 1×10^−6 M
Method: (§1) The specific ligand binding to the receptors is defined as the difference between the total binding and the non-specific binding determined in the presence of an excess of unlabelled ligand.
(§2) The inhibition constants (Ki) were calculated using the Cheng Prusoff equation (Ki=IC50/(1+(L/KD)), where L=concentration of radioligand in the assay, and KD=affinity of the radioligand for the receptor). A Scatchard plot is used to determine the Kd. The IC50 values (concentration causing a half-maximal inhibition of control specific binding) and Hill coefficients (nH) were determined by non-linear regression analysis of the competition curves generated with mean replicate values using Hill equation curve fitting (Y=D+[(A−D)/(1+(C/C50)^nH)], where Y=specific binding, D=minimum specific binding, A=maximum specific binding, C=compound concentration, C50=IC50, and nH=slope factor). This analysis was performed using a software developed at Cerep (Hill software) and validated by comparison with data generated by the commercial software SigmaPlot® 4.0 for Windows® (©1997 by SPSS Inc.).
Experimental conditions for tests are given in Table 7, and results of tests for representative compounds are given in Tables 8a and 8b (α1 receptors) and in Tables 9a and 9b (α2C receptors).

[2] = biological target: T1, 5-HT6 (h), human recombinant (CHO cells) (Homo sapiens, UniProt P50406); test: Cellular functional assay 5-HT6 (h) antagonism; type: cell-based; settings: compound 1×10^−6 M, stimulus serotonin 100 nM, read-out: 5-HT6-antag [%]
T1 construct: expressed in transfected cells; host or cells: CHO cells
Method: (§3) The results are expressed as a percent of control specific agonist response ((measured specific response/control specific agonist response)×100) obtained in the presence of tested compound.
(§4) The EC50 values (concentration producing a half-maximal specific response) and IC50 values (concentration causing a half-maximal inhibition of the control specific agonist response) were determined by non-linear regression analysis of the concentration-response curves generated with mean replicate values using Hill equation curve fitting (Y=D+[(A−D)/(1+(C/C50)nH)], where Y=specific response, D=minimum specific response, A=maximum specific response, C=compound concentration, and C50=EC50 or IC50, and nH=slope factor).
(§5) For the antagonists, the apparent dissociation constants (Kb) were calculated using the modified Cheng Prusoff equation (Kb=IC50/(1+(A/EC50A)), where A=concentration of reference agonist in the assay, and EC50A=EC50 value of the reference agonist).

[3] = biological target: T2, D2S (h), human recombinant (HEK-293 cells) (Homo sapiens, UniProt P14416); test: Cellular functional assay D2S (h) antagonism; type: cell-based; settings: HEK293; compound 1×10^−6 M; stimulus dopamine 30 nM; read-out: D2-antag [%]
T2 construct: expressed in transfected cells; host or cells: HEK-293 cells
Method: as §3, §4, §5

[4] = biological target: T2, D2S (h), human recombinant (HEK-293 cells); test: Cellular functional assay D2S (h) agonism; type: cell-based; settings: HEK293; compound 1×10^−6 M; control 3 μM dopamine; read-out: D2-ag [%]
Method: as §3, §4, §5

[5] = biological target: T1, 5-HT6 (h), human recombinant (CHO cells); test: Cellular functional assay 5-HT6 (h) agonism; type: cell-based; settings: compound 1×10^−6 M, control 10 μM serotonin, read-out: 5-HT6-ag [%]
Method: as §3, §4, §5

[6] = biological target: T3, 5-HT1A receptor (rat hippocampus) (Rattus norvegicus, UniProt P19327); test: Binding assay, 5-HT1A receptor ([3H]8-OH-DPAT); settings: compound 1×10^−6 M
T3 construct: hippocampus; from tissue; host or cells: rat hippocampus
T3 sequence (P19327 1-422): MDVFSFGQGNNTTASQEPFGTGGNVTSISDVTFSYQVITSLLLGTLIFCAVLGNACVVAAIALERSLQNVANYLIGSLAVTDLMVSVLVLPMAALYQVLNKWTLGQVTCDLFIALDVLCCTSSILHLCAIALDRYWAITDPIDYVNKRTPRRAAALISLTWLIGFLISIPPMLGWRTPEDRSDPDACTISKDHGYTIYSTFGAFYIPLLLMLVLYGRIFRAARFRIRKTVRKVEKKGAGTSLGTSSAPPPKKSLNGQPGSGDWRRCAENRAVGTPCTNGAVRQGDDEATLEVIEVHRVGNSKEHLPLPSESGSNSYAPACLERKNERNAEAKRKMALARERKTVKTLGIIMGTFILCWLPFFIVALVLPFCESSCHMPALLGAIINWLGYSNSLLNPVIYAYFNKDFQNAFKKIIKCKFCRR
Method: (§6) Moreover, ability of the compounds of the invention to block potassium channel hERG was tested.
as §1
as §2, with “factor).” for “factor). This analysis was performed using a software developed at Cerep (Hill software) and validated by comparison with data generated by the commercial software SigmaPlot® 4.0 for Windows® (©1997 by SPSS Inc.).”

[7] = biological target: T4, human recombinant SERT receptor (CHO cells) (Homo sapiens, UniProt P31645); test: Binding assay, serotonine transporter (SERT) ([3H]imipramine); settings: compound 1×10^−6 M
T4 construct: expressed in transfected cells; host or cells: CHO cells
Method: as §6, §1
as §2, with “factor).” for “factor). This analysis was performed using a software developed at Cerep (Hill software) and validated by comparison with data generated by the commercial software SigmaPlot® 4.0 for Windows® (©1997 by SPSS Inc.).”

[8] = biological target: T5, 5-HT6 receptor, human recombinant (Homo sapiens, UniProt P50406); test: Binding assay, 5-HT6 receptor ([3H]LSD); settings: compound 1×10^−6 M
T5 construct: purchased PerkinElmer
Method: as §6, §1
as §2, with “factor).” for “factor). This analysis was performed using a software developed at Cerep (Hill software) and validated by comparison with data generated by the commercial software SigmaPlot® 4.0 for Windows® (©1997 by SPSS Inc.).”

[9] = biological target: T6, 5-HT7 receptor, human recombinant (Homo sapiens, UniProt P34969); test: Binding assay, 5-HT7 receptor ([3H]LSD); settings: compound 1×10^−6 M
T6 construct: purchased PerkinElmer
Method: as §6, §1
as §2, with “factor).” for “factor). This analysis was performed using a software developed at Cerep (Hill software) and validated by comparison with data generated by the commercial software SigmaPlot® 4.0 for Windows® (©1997 by SPSS Inc.).”

[10] = biological target: T7, human recombinant D3 receptors (Homo sapiens, UniProt P35462); test: Binding assay, dopaminergic D3 receptor ([3H]methylspiperone); settings: compound 1×10^−6 M
T7 construct: purchased PerkinElmer
Method: as §6, §1
as §2, with “factor).” for “factor). This analysis was performed using a software developed at Cerep (Hill software) and validated by comparison with data generated by the commercial software SigmaPlot® 4.0 for Windows® (©1997 by SPSS Inc.).”

[11] = biological target: 5-HT2A receptor, human recombinant (Homo sapiens, UniProt P28223); test: Binding assay, 5-HT2A receptor ([3H]ketanserin); set-up: purchased PerkinElmer; settings: compound 1×10^−6 M
Method: as §6, §1
as §2, with “factor).” for “factor). This analysis was performed using a software developed at Cerep (Hill software) and validated by comparison with data generated by the commercial software SigmaPlot® 4.0 for Windows® (©1997 by SPSS Inc.).”

[12] = biological target: T8, D2 receptor, human recombinant (GeneBLAzer D2-Gqo5 CHO-K1 DA) (Homo sapiens, UniProt P14416); test: Binding assay, dopaminergic D2 receptor ([3H]methylspiperone); settings: compound 1×10^−6 M
T8 construct: purchased Invitrogen; host or cells: CHO-K1 (GeneBLAzer D2-Gqo5 CHO-K1 DA)
Method: as §6, §1
as §2, with “factor).” for “factor). This analysis was performed using a software developed at Cerep (Hill software) and validated by comparison with data generated by the commercial software SigmaPlot® 4.0 for Windows® (©1997 by SPSS Inc.).”

T2 sequence (P14416 1-414 isoform P14416-2): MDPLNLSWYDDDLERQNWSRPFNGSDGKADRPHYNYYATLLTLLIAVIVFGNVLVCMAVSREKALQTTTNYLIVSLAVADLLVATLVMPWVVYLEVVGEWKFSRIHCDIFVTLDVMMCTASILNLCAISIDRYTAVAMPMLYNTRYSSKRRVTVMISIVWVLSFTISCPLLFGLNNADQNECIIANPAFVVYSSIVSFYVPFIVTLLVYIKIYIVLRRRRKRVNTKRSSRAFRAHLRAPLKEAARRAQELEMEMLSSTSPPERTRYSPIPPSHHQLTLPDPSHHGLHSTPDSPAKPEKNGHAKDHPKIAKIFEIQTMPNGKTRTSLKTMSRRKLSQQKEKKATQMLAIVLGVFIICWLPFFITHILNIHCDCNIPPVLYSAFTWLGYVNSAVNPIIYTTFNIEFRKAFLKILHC
T1 sequence (P50406 whole entry): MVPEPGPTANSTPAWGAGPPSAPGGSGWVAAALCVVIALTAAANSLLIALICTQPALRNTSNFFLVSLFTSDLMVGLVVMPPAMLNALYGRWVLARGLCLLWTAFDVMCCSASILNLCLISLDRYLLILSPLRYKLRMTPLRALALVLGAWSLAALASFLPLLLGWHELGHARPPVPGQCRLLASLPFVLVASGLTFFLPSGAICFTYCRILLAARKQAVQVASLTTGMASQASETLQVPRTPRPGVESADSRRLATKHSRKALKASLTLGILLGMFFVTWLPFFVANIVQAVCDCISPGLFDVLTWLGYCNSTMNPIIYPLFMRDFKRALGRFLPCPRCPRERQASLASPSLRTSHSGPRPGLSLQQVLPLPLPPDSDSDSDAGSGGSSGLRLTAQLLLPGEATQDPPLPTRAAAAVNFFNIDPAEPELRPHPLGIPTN
T4 sequence (P31645 whole entry): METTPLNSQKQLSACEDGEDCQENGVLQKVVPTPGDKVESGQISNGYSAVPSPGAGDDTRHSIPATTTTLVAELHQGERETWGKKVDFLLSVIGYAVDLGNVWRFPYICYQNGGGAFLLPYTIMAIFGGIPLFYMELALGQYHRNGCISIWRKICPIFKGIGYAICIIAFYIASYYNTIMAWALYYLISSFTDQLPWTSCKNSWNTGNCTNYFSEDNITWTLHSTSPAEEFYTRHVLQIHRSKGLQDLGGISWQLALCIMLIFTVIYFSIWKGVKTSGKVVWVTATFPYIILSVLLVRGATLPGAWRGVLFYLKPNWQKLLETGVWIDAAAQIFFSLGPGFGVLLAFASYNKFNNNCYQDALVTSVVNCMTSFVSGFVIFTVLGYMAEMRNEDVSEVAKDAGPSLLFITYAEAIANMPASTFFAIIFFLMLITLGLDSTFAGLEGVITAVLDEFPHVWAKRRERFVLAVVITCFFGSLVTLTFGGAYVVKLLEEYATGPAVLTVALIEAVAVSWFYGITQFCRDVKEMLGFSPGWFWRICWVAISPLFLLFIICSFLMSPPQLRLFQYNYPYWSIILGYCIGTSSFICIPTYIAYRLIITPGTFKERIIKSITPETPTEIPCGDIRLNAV
T8 sequence (P14416 whole entry): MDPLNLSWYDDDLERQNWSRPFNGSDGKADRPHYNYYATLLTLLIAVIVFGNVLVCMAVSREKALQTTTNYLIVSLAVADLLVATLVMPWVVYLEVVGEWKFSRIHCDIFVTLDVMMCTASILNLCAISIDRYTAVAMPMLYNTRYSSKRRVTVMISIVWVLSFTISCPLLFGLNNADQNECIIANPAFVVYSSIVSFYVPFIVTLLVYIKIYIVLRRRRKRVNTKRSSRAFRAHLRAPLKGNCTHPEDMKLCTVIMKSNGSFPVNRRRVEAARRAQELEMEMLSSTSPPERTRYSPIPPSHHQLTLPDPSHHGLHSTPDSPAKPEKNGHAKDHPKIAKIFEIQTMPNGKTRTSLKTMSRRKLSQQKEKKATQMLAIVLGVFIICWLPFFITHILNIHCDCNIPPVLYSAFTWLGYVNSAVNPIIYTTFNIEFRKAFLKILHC
Sequence of 5-HT2A receptor, human recombinant (P28223 whole entry): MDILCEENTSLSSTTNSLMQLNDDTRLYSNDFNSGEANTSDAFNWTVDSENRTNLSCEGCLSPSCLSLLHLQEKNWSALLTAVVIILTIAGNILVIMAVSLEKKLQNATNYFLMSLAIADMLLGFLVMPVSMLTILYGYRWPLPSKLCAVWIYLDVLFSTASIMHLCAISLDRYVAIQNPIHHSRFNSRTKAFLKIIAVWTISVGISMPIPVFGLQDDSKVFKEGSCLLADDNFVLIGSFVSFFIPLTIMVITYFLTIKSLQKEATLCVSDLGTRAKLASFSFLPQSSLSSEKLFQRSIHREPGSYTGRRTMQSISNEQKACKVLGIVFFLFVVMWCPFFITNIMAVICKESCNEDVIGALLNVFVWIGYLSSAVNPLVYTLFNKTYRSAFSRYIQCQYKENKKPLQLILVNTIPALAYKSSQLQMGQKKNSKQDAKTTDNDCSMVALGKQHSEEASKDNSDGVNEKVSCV
T7 sequence (P35462 whole entry): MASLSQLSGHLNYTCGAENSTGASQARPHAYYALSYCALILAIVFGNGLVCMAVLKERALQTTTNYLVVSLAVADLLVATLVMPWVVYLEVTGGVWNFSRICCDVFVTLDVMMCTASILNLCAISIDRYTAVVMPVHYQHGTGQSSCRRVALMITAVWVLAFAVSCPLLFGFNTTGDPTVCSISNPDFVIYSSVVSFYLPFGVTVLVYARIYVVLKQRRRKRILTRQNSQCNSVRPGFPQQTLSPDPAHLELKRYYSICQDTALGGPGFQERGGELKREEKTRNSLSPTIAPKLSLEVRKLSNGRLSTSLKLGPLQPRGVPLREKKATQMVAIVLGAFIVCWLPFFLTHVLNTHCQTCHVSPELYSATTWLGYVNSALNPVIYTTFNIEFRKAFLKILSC
T6 sequence (P34969 whole entry): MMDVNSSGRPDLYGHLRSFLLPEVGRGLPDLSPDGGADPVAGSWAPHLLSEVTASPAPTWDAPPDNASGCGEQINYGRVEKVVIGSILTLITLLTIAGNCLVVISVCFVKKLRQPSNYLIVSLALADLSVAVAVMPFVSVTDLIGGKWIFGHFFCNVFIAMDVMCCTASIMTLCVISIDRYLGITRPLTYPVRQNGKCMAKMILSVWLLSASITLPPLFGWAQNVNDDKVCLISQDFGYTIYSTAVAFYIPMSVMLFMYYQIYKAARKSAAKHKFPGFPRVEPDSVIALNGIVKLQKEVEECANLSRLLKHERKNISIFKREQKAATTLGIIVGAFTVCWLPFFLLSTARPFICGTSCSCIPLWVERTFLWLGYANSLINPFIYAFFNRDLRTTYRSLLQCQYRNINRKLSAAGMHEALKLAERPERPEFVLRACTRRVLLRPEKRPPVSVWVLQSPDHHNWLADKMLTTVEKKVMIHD
T5 sequence (P50406 whole entry): as the sequence (P50406 whole entry) above

O=S(=O)(c1ccccc1)n1ccc2c(N3CCN(CCCCOc4ccc(F)cc4)CC3)cccc21 [Compound 70, 1-(Benzenesulfonyl)-4-[4-[4-(4-fluorophenoxy)butyl]piperazin-1-yl]-indole]
α1 [%] affinity test result [1]: 54%

CC(C)Oc1ccccc1OCCCCN1CCN(c2cccc3c2ccn3S(=O)(=O)c2ccccc2)CC1 [Compound 71, 1-(Benzenesulfonyl)-4-[4-[4-(2-isopropoxyphenoxy)butyl]-piperazin-1-yl]indole]
α1 [%] affinity test result [1]: 40%

O=C1CCc2ccc(OCCCCN3CCN(c4cccc5c4ccn5Cc4ccc(F)cc4)CC3)cc2N1 [Compound 65, 7-[4-[4-[1-[(4-Fluorophenyl)methyl]indol-4-yl]piperazin-1-yl]butoxy]-3,4-dihydro-1H-quinolin-2-one]
α1 [%] affinity test result [1]: 59%

NC(=O)c1ccccc1OCCCN1CCN(c2cccc3c2ccn3Cc2cccc(F)c2)CC1 [Compound 64, 2-[3-[4-[1-[(3-Fluorophenyl)methyl]indol-4-yl]piperazin-1-yl]propoxy]-benzamide]
α1 [%] affinity test result [1]: 57%

O=S(=O)(c1ccccc1)n1ccc2c(N3CCN(CCCOc4ccc(F)cc4)CC3)cccc21 [Compound 15, 4-(4-(3-(4-Fluorophenoxy)propyl)piperazin-1-yl)-1-(phenylsulphonyl)-1H-indole]
α1 [%] affinity test result [1]: 93% | inhibition at 1 µM [2]: 88% | inhibition at 1 µM [3]: 68% | activation at 1 µM [4]: 11% | activation at 1 µM [5]: 0%

CC(C)Oc1ccccc1OCCCN1CCN(c2cccc3c2ccn3S(=O)(=O)c2ccccc2)CC1 [Compound 21, 4-(4-(3-(2-(1-Methylethoxy)phenoxy)propyl)piperazin-1-0)-1-(phenylsulphonyl)-1H-indole]
α1 [%] affinity test result [1]: 83% | 5-HT1A [%] binding assay result [6]: 91% | SERT [%] affinity test result [7]: 13% | 5-HT6 [%] binding assay result [8]: 97% | 5-HT7 [%] binding assay result [9]: 78% | D3 [%] binding assay result [10]: 86% | 5-HT2A [%] binding assay result [11]: 80% | D2 [%] binding assay result [12]: 90%

NC(=O)c1ccccc1OCCCN1CCN(c2cccc3c2ccn3Cc2ccc(F)cc2)CC1 [Compound 66, 2-[3-[4-[1-[(4-Fluorophenyl)methyl]indol-4-yl]piperazin-1-yl]propoxy]-benzamide]
α1 [%] affinity test result [1]: 42%

O=S(=O)(c1ccccc1)n1ccc2c(N3CCN(CCCCOc4ccccc4)CC3)cccc21 [Compound 69, 1(Benzenesulfonyl)-4-[4-(4-phenoxybutyl)piperazin-1-yl]indole]
α1 [%] affinity test result [1]: 49%

NC(=O)c1ccccc1OCCCN1CCN(c2cccc3c2ccn3Cc2cccc(Cl)c2)CC1 [Compound 68, 2-[3-[4-[1-[(3-Chlorophenyl)methyl]indol-4-yl]piperazin-1-yl]propoxy]-benzamide]
α1 [%] affinity test result [1]: 56%

O=S(=O)(c1ccccc1)n1ccc2c(N3CCN(CCCOc4ccc5ccoc5c4)CC3)cccc21 [Compound 25, 4-(4-(3-(Benzofuran-6-yloxy)propyl)piperazin-1-yl)-1-(phenylsulphonyl)-1H-indole]
α1 [%] affinity test result [1]: 25% | inhibition at 1 µM [2]: 98% | inhibition at 1 µM [3]: 75% | activation at 1 µM [4]: 30% | activation at 1 µM [5]: -4%

NC(=O)c1ccccc1OCCCN1CCN(c2cccc3c2ccn3Cc2ccccc2)CC1 [Compound 60, 2-[3-[4-(1-Benzylindol-4-yl)piperazin-1-yl]propoxy]benzamide]
α1 [%] affinity test result [1]: 56%

O=S(=O)(c1ccccc1)n1ccc2c(N3CCN(CCCOc4ccccc4)CC3)cccc21 [Compound 12, 4-(4-(3-Phenoxypropyl)piperazin-1-yl)-1-(phenylsulphonyl)-1H-indole]
α1 [%] affinity test result [1]: 83% | inhibition at 1 µM [2]: 73% | inhibition at 1 µM [3]: 73% | activation at 1 µM [4]: 11% | activation at 1 µM [5]: -2%

O=C1CCc2ccc(OCCCCN3CCN(c4cccc5c4ccn5Cc4ccccc4F)CC3)cc2N1 [Compound 61, 7-[4-[4-[1-[(2-Fluorophenyl)methyl]indol-4-yl]piperazin-1-yl]butoxy]-3,4-dihydro-1H-quinolin-2-one]
α1 [%] affinity test result [1]: 13%

NC(=O)c1ccccc1OCCCN1CCN(c2cccc3c2ccn3Cc2ccccc2F)CC1 [Compound 62, 2-[3-[4-[1-[(2-Fluorophenyl)methyl]indol-4-yl]piperazin-1-yl]propoxy]-benzamide]
α1 [%] affinity test result [1]: 50%
